No end group written: not given here.
Test system: β-hexosaminidase
Assay: Total β-hexosaminidase activity in brain homogenates
Type: in vivo, mouse
Conditions: chronic daily 50 μg/kg BW, vs saline
Method: The activity of β-hexosaminidase was measured by combining 2.5 μl of 10× diluted homogenate ([…] of protein) with 15 μl of 0.1 M sodium acetate buffer (pH 4.2), and 12.5 μl of 3 mM 4-methylumbelliferyl N-acetyl-β-D-glucosaminide (Sigma-Aldrich) followed by incubation for 30 min at 37° C. The reaction was stopped 0.4 M glycine buffer (pH 10.4) and fluorescence was measured as above.
Starting from 3 weeks of age, WT C57B16 and homozygous Hgsnat^P304L male and female mice were randomly divided in treatment and control groups (6-13 mice/sex/genotype/treatment; see Table I). The control group was daily administered with saline (5 μL to each nostril), while for the treatment group, saline was supplemented with 125 µg of AVP6/mL, which would result in a dose of approximately 50 μg/kg BW/day. The peptide formulation was prepared once, aliquoted and kept frozen at −80° C. until use. At 4 months, all mice were studied by EPM, OF, YM and NOR behavioral tests. Administration of the drug or saline was continued through the days on which the assays were conducted. Then approximately at 5 months 4-5 mice in each group were sacrificed. Their blood plasma was collected, and their tissues were either snap-frozen or fixed and cryopreserved to analyze CNS pathology as described above. […] When such signs were detected, the mice were studied by ERG and sacrificed within 1-2 days. […]

Question: Which results are given for “AVP6: N-terminally acetylated Semax, a nootropic peptide having the amino acid sequence of MEHFPGP (SEQ ID NO:1) (Ac-MEHFPGP)”?
Answer: total β-hexosaminidase activity in total brain homogenates (Hgsnat^P304L mice at 5 months): remained similar; total β-hexosaminidase activity in brain homogenates (Hgsnat^P304L mice at terminal timepoint): trend for reduction
